Test results as given in patent publication US10005741B2, “Therapeutic compounds” (ARIZONA BOARD OF REGENTS ON BEHALF OF ARIZONA STATE …, priority 2014, dated 2018).

Assays:
[1] = biological target: T1, human RXR (Homo sapiens, UniProt P19793); test: Test A: RXR mammalian two-hybrid luciferase assay in transfected HCT-116 cells; type: cell-based; conditions: RXR mammalian two-hybrid system, luciferase reporter, 24 hours treatment, dose-response 1x10^-9 to 0.3x10^-5 M
T1 construct: expressed in transfected cells; host or cells: HCT-116 cells
T1 sequence (P19793 1-462) 1: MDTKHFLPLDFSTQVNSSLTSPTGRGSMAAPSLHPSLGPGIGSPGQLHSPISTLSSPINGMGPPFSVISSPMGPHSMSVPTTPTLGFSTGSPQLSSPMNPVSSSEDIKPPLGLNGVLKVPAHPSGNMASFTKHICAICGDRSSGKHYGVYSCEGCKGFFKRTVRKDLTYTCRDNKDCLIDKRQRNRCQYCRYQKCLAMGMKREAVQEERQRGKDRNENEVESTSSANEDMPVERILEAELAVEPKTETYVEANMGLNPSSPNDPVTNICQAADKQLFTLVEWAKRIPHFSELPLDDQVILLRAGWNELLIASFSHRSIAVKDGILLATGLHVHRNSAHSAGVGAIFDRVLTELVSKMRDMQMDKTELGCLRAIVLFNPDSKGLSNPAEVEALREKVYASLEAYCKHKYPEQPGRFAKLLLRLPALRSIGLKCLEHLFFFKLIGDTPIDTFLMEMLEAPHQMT
T1 sequence (P19793 1-462) 2: T1 sequence (P19793 1-462) 1
Procedure: HCT-116 cells were plated overnight at 80,000 cells/well in a 24 well plate and maintained as described above. The cells were co-transfected using a human RXR binding domain (BD) vector, a human RXR activation domain (AD) vector, a luciferase reporter gene containing BD-binding sites and renilla control plasmid. Transfection was achieved via 2 μL/well of Express-IN transfection reagent which was allowed to incubate for 24 hours with the cells. […] The amount of rexinoid activity at each concentration was measured using the same luciferase assay described above, and EC50 values were derived from dose-response curves of ligand concentration versus normalized luciferase activity.

Row | melting point [°C] | Compound | EC50 [1] [nM]
1 | – | Cc1cnc(/C=C/C(=O)O)cc1-c1cc2c(cc1C)C(C)(C)CCC2(C)C [Compound A42] | 3.7
2 | – | Cc1cc2c(cc1-c1cncc(/C=C/C(=O)O)c1)C(C)(C)CCC2(C)C [Compound A45, (E)-3-(5-(3,5,5,8,8-pentamethyl-5,6,7,8-tetrahydronaphthalen-2-yl)pyridin-3-yl)acrylic acid] | 710
3 | – | Cc1cc2c(cc1-c1nc(/C=C/C(=O)O)ccc1C)C(C)(C)CCC2(C)C [Compound A46, (E)-3-(5-methyl-6-(3,5,5,8,8-pentamethyl-5,6,7,8-tetrahydronaphthalen-2-yl)pyridin-2-yl)acrylic acid] | 305
4 | – | Cc1cc2c(cc1-n1c(C(F)(F)F)nc3cc(C(=O)O)ccc31)C(C)(C)CCC2(C)C [Compound A48] | 20
5 | 231.9 to 233.1 | CCN(c1ncc(C(=O)O)cn1)c1cc2c(cc1C)C(C)(C)CCC2(C)C [Compound A57, 2-(ethyl(3,5,5,8,8-pentamethyl-5,6,7,8-tetrahydronaphthalen-2-yl)amino)pyrimidine-5-carboxylic acid] | –
6 | 213.1 to 214.4 | CCN(c1ccc2c(c1)C(C)(C)CCC2(C)C)c1cnc(C(=O)O)cn1 [Compound A58, 5-(ethyl(5,5,8,8-tetramethyl-5,6,7,8-tetrahydronaphthalen-2-yl)amino)pyrazine-2-carboxylic acid] | –
7 | 203.6 to 205.1 | CCN(c1cnc(C(=O)O)cn1)c1cc2c(cc1C)C(C)(C)CCC2(C)C [Compound A59, 5-(ethyl(3,5,5,8,8-pentamethyl-5,6,7,8-tetrahydronaphthalen-2-yl)amino)pyrazine-2-carboxylic acid] | –
8 | 241.4 to 243.8 | CCN(c1ccc(C(=O)O)c(F)c1)c1cc2c(cc1C)C(C)(C)CCC2(C)C [Compound A60, 4-(ethyl(3,5,5,8,8-pentamethyl-5,6,7,8-tetrahydronaphthalen-2-yl)amino)-2-fluorobenzoic acid] | –
9 | 252.4 to 256.8 | CCN(c1ccc(C(=O)O)cc1)c1cc2c(cc1C)C(C)(C)CCC2(C)C [Compound A61, 4-(ethyl(3,5,5,8,8-pentamethyl-5,6,7,8-tetrahydronaphthalen-2-yl)amino)benzoic acid] | –
10 | 252.4 to 256.8 | CCN(c1ccc(C(=O)O)c(F)c1)c1ccc2c(c1)C(C)(C)CCC2(C)C [Compound A62, 4-(ethyl(5,5,8,8-tetramethyl-5,6,7,8-tetrahydronaphthalen-2-yl)amino)-2-fluorobenzoic acid] | –
11 | 247.8 to 250.6 | CCN(c1ccc(C(=O)O)cc1)c1ccc2c(c1)C(C)(C)CCC2(C)C [Compound A63, 4-(ethyl(5,5,8,8-tetramethyl-5,6,7,8-tetrahydronaphthalen-2-yl)amino)benzoic acid] | –
